Experiments:
Test in all cases: biochemical
Parameters in all cases: scanMAX competition binding; kinase recovered on immobilized ligand quantified by qPCR, per cent of control
Details in all cases: read-out: APA (POC)
DYRK2 = DYRK2 (Homo sapiens, UniProt Q92630)
Method: (§1) The binding affinities of APA and NAPA were evaluated in the scanMAX^sm Kinase Assay Panel (DiscoverX) at a final concentration of 10 µM. The compounds were tested for steric or allosteric binding to kinases in solution. The kinase was captured from the solution through an immobilized kinase-specific ligand and the kinase recovery was quantified. The amount of recovered kinase in the presence or absence of APA or NAPA was measured by quantitative PCR compared with the kinase capture in absence of the compound. Any compound reducing the binding affinity of a kinase to the respective immobilized ligand was scored as a potential hit, and the binding affinity of the compound toward a kinase is interpreted as the difference between the kinase recovery in the absence and presence of the compound. The inhibitory binding constants (Kd) of APA and NAPA to AURKA were evaluated in a KdELECT Kinase Assay (DiscoverX). […] Data acquisition followed the same methodology as for the scanMAX^sm Kinase Assay Panel. 6 Supplementary Figure 4. Kinome inhibition profiles of APA and its NAT2 metabolite NAPA identifies preferential APA kinase targets and differential binding to AURKA a The human kinome was assessed for binding affinity to APA and NAPA at 10 µM concentration (468 kinases in the scanMAX Kinase Assay Panel, DiscoverX). The family stratification of kinases is shown as a cladogram. Circles visualize the binding affinity of NAPA and APA towards each kinase with a higher intensity of blue corresponding to a higher binding affinity. […] One single data point from one experiment at a concentration 18.5 µM of APA was excluded as an outlier. c Thermal shift assay for human recombinant AURKA in the presence of APA and the selective inhibitor S1451. Melting temperatures were obtained by calculating the first derivative of the tryptophan fluorescence ratio at 350 nm and 330 nm and are shown for AURKA in the presence of S1451 (blue) and APA (yellow). Structural similarities between APA and kinase inhibitors[27] prompted investigation of protein kinases as mediators of APA toxicity. […] To enrich for kinase interactions that could explain the preferential killing of slow NAT2 cells, we compared the binding affinity of each kinase with APA and NAPA, selected 44 targets with preferential binding to APA and excluded kinases non-essential for cell survival and those not expressed in CRC cells (Supplementary Fig. 4A, Supplementary Table 4). […] The growth inhibition of RKO and DLD-1 following siRNA-mediated AURKA knockdown (Figs. 3c, d) reflected the relative efficiency of protein downregulation (Supplementary Fig. 5C, D). […] (Supplementary Fig. 4C). AURKA regulates cell cycle progression through association with other centrosome and spindle-associated proteins. Its activation requires auto-phosphorylation at Thr288 and ensures spindle pole integrity, centrosome duplication as well as adequate chromosomal alignment and segregation, while its inhibition leads to multipolar spindles with acentrosomal poles[28],[31]. […] S1451 reduced the fraction of pAURKA levels by >90% regardless of NAT2 expression (Fig. 3f and Su

TNIK = TNIK (Homo sapiens, UniProt Q9UKE5)
Method: as §1

PDGFRA = PDGFRA (Homo sapiens, UniProt P16234)
Method: as §1

DYRK1A = DYRK1A (Homo sapiens, UniProt Q13627)
Method: as §1

MAST1 = MAST1 (Homo sapiens, UniProt Q9Y2H9)
Method: as §1

HIPK2 = HIPK2 (Homo sapiens, UniProt Q9H2X6)
Method: as §1

PIP5K1A = PIP5K1A (Homo sapiens, UniProt Q99755)
Method: as §1

MINK1 = MINK1 (Homo sapiens, UniProt Q8N4C8)
Method: as §1

CLK4 = CLK4 (Homo sapiens, UniProt Q9HAZ1)
Method: as §1

HIPK4 = HIPK4 (Homo sapiens, UniProt Q8NE63)
Method: as §1

RPS6KA3_Dom1 = target: T1, RPS6KA3_Dom1 (Homo sapiens, UniProt P51812)
T1 construct: gene RPS6KA3; Kin.Dom.1 N-terminal
Method: as §1

CDKL2 = CDKL2 (Homo sapiens, UniProt Q92772)
Method: as §1

RET = RET (Homo sapiens, UniProt P07949)
Method: as §1

MKNK1 = MKNK1 (Homo sapiens, UniProt Q9BUB5)
Method: as §1

HIPK4, sequence (Q8NE63 whole entry): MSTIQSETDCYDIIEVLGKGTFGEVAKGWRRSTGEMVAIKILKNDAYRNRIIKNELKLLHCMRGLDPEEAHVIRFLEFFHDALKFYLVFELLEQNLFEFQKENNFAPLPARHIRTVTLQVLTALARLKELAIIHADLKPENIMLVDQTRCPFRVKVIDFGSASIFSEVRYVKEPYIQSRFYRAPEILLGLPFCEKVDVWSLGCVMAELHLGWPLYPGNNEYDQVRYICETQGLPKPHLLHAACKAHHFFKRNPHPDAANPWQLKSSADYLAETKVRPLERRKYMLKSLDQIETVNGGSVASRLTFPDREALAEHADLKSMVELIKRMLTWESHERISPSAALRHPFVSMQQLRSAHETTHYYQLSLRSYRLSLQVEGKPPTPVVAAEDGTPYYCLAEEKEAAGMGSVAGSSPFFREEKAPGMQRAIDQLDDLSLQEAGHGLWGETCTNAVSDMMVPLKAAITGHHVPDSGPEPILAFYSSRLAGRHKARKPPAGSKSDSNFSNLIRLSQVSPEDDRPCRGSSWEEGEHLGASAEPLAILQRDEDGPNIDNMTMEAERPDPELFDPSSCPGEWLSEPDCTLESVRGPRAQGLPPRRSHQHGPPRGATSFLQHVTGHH
DYRK2, sequence (Q92630 whole entry): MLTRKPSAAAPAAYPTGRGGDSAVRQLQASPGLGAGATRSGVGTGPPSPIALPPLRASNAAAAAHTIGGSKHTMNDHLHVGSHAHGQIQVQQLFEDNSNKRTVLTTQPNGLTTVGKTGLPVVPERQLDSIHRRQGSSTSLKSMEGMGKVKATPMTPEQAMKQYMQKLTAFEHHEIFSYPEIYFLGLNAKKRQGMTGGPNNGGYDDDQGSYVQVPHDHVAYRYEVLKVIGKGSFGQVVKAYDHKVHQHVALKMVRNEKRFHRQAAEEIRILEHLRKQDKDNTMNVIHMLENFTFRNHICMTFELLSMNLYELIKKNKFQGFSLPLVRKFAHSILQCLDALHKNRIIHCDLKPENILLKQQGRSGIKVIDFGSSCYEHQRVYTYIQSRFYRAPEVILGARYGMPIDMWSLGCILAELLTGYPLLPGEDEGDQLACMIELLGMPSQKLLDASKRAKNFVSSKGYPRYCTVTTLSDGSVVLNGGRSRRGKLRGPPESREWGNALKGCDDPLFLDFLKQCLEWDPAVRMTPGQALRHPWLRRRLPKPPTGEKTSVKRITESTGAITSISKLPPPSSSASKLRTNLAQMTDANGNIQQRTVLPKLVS
PDGFRA, sequence (P16234 whole entry): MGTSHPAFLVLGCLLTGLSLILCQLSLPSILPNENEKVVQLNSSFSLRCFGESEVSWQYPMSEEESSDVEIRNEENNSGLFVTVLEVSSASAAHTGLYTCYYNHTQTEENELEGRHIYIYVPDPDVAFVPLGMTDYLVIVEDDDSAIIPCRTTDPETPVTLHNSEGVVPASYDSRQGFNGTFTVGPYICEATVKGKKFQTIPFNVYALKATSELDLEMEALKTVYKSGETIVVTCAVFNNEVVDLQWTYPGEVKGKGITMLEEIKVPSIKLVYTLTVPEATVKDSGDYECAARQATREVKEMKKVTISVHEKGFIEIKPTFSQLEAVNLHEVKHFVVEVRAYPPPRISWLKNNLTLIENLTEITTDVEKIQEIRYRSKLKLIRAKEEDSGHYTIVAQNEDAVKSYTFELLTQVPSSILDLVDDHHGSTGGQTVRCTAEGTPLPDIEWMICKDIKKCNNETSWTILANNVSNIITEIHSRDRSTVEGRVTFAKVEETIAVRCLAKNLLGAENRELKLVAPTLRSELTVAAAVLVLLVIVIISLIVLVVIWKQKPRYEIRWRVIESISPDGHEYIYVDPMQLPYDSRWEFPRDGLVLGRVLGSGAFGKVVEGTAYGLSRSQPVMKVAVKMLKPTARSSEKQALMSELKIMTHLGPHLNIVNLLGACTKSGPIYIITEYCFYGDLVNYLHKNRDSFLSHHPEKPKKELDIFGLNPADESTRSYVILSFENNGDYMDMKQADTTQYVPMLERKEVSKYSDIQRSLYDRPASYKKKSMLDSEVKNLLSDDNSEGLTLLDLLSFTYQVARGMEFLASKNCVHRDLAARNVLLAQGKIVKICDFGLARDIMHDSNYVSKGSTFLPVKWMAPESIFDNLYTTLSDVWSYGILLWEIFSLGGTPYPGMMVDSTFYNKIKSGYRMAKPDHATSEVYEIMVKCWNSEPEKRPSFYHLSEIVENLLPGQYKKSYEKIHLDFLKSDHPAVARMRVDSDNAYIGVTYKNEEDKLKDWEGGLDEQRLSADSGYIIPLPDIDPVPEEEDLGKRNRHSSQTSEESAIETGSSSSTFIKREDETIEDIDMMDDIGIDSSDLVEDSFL
PIP5K1A, sequence (Q99755 whole entry): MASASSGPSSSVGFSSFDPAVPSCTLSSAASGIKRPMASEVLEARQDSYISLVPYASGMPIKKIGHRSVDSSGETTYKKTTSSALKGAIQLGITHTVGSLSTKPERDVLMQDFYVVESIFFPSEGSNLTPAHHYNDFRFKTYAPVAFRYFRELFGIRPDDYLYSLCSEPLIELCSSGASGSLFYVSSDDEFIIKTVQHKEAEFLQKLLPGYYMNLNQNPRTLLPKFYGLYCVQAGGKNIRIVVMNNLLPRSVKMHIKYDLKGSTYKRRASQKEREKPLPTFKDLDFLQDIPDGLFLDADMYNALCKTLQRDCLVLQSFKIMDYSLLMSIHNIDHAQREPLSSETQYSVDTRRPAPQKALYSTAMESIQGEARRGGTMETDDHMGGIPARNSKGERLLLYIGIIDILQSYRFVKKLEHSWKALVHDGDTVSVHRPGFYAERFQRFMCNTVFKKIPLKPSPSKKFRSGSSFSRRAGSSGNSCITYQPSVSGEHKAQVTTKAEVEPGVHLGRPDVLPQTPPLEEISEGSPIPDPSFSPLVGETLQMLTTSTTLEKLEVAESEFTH
RET, sequence (P07949 whole entry): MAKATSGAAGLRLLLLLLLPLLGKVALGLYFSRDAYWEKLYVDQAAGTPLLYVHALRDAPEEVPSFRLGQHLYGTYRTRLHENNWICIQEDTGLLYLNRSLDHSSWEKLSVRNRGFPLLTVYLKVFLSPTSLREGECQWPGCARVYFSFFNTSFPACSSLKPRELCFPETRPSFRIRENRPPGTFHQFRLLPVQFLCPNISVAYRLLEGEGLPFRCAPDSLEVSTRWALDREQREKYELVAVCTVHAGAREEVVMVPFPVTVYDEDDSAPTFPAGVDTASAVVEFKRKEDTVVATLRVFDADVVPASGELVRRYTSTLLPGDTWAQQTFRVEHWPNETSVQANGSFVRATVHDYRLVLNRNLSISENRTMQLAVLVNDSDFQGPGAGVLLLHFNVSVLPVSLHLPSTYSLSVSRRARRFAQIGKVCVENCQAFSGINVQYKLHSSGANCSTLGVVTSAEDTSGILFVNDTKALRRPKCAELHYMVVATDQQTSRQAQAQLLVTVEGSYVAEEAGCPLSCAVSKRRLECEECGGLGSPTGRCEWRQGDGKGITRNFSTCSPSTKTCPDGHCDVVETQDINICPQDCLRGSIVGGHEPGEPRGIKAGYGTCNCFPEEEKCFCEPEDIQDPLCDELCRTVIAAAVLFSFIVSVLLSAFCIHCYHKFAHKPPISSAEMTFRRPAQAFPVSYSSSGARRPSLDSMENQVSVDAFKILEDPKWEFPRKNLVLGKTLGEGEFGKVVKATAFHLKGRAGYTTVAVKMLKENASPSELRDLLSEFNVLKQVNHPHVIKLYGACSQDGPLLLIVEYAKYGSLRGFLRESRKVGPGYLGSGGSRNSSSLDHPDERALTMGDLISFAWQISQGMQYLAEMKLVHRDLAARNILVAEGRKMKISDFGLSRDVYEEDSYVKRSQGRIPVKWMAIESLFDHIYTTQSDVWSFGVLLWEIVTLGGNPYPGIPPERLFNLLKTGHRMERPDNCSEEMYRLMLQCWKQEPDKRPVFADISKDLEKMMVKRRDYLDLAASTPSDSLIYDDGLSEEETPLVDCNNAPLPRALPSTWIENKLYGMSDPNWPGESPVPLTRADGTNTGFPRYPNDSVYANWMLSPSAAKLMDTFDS
CLK4, sequence (Q9HAZ1 whole entry): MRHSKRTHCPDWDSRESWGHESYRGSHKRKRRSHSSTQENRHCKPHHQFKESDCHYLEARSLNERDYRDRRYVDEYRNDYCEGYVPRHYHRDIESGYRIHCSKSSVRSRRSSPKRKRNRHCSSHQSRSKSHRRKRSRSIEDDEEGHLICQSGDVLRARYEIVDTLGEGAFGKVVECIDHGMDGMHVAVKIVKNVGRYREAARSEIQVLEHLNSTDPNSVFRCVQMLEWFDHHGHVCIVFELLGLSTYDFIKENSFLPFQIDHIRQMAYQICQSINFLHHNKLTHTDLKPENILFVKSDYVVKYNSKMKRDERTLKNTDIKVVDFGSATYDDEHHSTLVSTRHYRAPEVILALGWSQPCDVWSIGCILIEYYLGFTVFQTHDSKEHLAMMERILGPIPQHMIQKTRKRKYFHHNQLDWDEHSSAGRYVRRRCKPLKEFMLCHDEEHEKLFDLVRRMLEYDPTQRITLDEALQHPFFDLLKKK
CDKL2, sequence (Q92772 whole entry): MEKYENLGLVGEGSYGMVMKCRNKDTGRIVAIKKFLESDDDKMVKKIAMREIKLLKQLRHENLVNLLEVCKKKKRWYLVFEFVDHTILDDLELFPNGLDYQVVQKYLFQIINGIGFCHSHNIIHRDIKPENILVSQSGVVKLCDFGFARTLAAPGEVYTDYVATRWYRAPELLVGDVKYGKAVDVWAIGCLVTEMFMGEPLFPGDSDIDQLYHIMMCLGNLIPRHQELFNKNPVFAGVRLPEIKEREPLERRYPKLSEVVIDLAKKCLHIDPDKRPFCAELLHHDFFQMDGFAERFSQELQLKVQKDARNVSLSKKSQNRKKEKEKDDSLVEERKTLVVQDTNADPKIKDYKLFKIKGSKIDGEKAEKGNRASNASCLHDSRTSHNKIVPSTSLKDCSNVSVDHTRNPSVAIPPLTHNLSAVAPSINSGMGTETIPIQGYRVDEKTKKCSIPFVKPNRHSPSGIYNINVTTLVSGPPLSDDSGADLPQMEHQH

Question: For `COc1cc(Nc2cncc(-c3ccc(N)cc3)n2)cc(OC)c1OC` [APA, 6-(4-aminophenyl)-N-(3,4,5-trimethoxyphenyl)pyrazin-2-amine], which remaining binding at 10 µM (DYRK2) is on record?
Answer: 63%

Question: What about the remaining binding at 10 µM (TNIK) of the same compound?
Answer: 39%

Question: What about the remaining binding at 10 µM (PDGFRA) of the same compound?
Answer: 3.4%

Question: And the remaining binding at 10 µM (DYRK1A)?
Answer: 7.8%

Question: What about the remaining binding at 10 µM (MAST1) of the same compound?
Answer: 46%

Question: And the remaining binding at 10 µM (HIPK2)?
Answer: 22%

Question: What about the remaining binding at 10 µM (PIP5K1A) of the same compound?
Answer: 52%

Question: What about the remaining binding at 10 µM (MINK1) of the same compound?
Answer: 24%

Question: And the remaining binding at 10 µM (CLK4)?
Answer: 27%

Question: What about the remaining binding at 10 µM (HIPK4) of the same compound?
Answer: 10%

Question: And the remaining binding at 10 µM (RPS6KA3_Dom1)?
Answer: 39%

Question: What about the remaining binding at 10 µM (CDKL2) of the same compound?
Answer: 42%

Question: What about the remaining binding at 10 µM (RET) of the same compound?
Answer: 24%

Question: What about the remaining binding at 10 µM (MKNK1) of the same compound?
Answer: 37%

Reference: article PMC7066191, “Exploiting loss of heterozygosity for allele-selective colorectal cancer chemotherapy” (Nature Communications, 2020)
